We go through 7 compounds from ChEMBL document CHEMBL4819013, “The giardicidal activity of lobendazole, fabomotizole, tenatoprazole and ipriflavone: A ligand-based virtual screening and in vitro study” (Eur J Med Chem, 2021).

What is called IC50 is the point on the concentration scale where inhibition reaches its midpoint. Read a high IC50 as weaker potency in that assay.

The subject of assay [1] is Giardia intestinalis. Put plainly: Giardicidal activity against Giardia intestinalis IMSS isolate incubated for 48 hrs by hemocytometric counting method. It counts as functional, organism-based. To be noted: Giardia duodenalis.
Assay [2] relates to Giardia intestinalis. Put plainly: Giardicidal activity against albendazole-resistant Giardia intestinalis incubated for 48 hrs by hemocytometric counting method. To be noted: Giardia duodenalis. The assay is classed as functional, organism-based.
The subject of assay [3] is Giardia intestinalis. Put plainly: Giardicidal activity against Giardia intestinalis WB ATCC 30957 incubated for 48 hrs by hemocytometric counting method. To be noted: Giardia duodenalis, WB ATCC 30957, 48 h. The assay is classed as functional, organism-based.
Assay [4] concerns Giardia intestinalis. Put plainly: Potency index, ratio of nitazoxanide IC50 to test compound IC50 for Giardicidal activity against nitazoxanide-resistant Giardia intestinalis incubated for 48 hrs by hemocytometric counting method. It counts as functional, Giardia duodenalis.
In assay [5] the test system is Giardia intestinalis. The experiment in a line: Giardicidal activity against metronidazole-resistant Giardia intestinalis incubated for 48 hrs by hemocytometric counting method. It counts as functional, organism-based. To be noted: Giardia duodenalis.
In assay [6] the test system is Giardia intestinalis. The experiment in a line: Giardicidal activity against nitazoxanide-resistant Giardia intestinalis incubated for 48 hrs by hemocytometric counting method. It counts as functional, organism-based. To be noted: Giardia duodenalis.
Assay [7] concerns Giardia intestinalis. Put plainly: Potency index, ratio of albendazole IC50 to test compound IC50 for Giardicidal activity against nitazoxanide resistant Giardia intestinalis incubated for 48 hrs by hemocytometric counting method. The assay is classed as functional, Giardia duodenalis.
Assay [8] deals with Giardia intestinalis. The experiment in a line: Potency index, ratio of metronidazole IC50 to test compound IC50 for Giardicidal activity against metronidazole-resistant Giardia intestinalis incubated for 48 hrs by hemocytometric counting method. The assay is classed as functional, Giardia duodenalis.
The subject of assay [9] is Giardia intestinalis. Put plainly: Potency index, ratio of albendazole IC50 to test compound IC50 for Giardicidal activity against albendazole-resistant Giardia intestinalis incubated for 48 hrs by hemocytometric counting method. The assay is classed as functional, Giardia duodenalis.

Each structure is given as a SMILES string.

For the compound `CCOC(=O)Nc1nc2ccccc2[nH]1` [LOBENDAZOLE], the concentration for half-maximal inhibition (IC50) in assay [1] is 37 nM; in [2], 916 nM; in assay [3], 85 nM; in assay [5] it was 200 nM; in [6], 61 nM. The “Ratio IC50” value in [4] was determined as 32; in [7], 4.5.
For the compound `CC(C)Oc1ccc2c(=O)c(-c3ccccc3)coc2c1` [IPRIFLAVONE], the IC50 in [1] stood at 25 nM; in [2], 45 nM; in assay [3] it was 34 nM; in [5] it was 510 nM; in assay [6], 14 nM.
On to `Cc1ncc([N+](=O)[O-])n1CCO` [METRONIDAZOLE], for which the IC50 in [2] was 1630 nM; in assay [5], 1850 nM.
Regarding `CCOc1ccc2nc(SCCN3CCOCC3)[nH]c2c1` [FABOMOTIZOLE], the IC50 was found to be 29 nM in assay [1]; 50 nM in assay [2]; 31 nM in [3]; 50 nM in [5]; 65 nM in [6].
On to `COc1ccc2[nH]c([S+]([O-])Cc3ncc(C)c(OC)c3C)nc2n1` (stereo not given) [TENATOPRAZOLE], for which the 50% inhibitory concentration (IC50) in assay [1] came out at 20 nM; in assay [2], 27 nM; in [3] it was 19 nM; in assay [5] it was 59 nM; in assay [6], 49 nM. Moreover, the “Ratio IC50” value in assay [4] amounted to 40; in assay [8] it was 31; in assay [9], 5.
Regarding `CC(=O)Oc1ccccc1C(=O)Nc1ncc([N+](=O)[O-])s1` [NITAZOXANIDE], the IC50 in [1] amounted to 15 nM; in assay [2], 21 nM; in assay [3], 18 nM; in [5], 17 nM; in assay [6] it was 1970 nM.
Consider `CCCSc1ccc2[nH]c(NC(=O)OC)nc2c1` [ALBENDAZOLE], for which the IC50 was determined as 137 nM in assay [2], 47 nM in assay [3] and 277 nM in assay [6].
